{"source": "patent US12332198B2", "about": "“Metabolite based diagnostics for periprosthetic joint infection” (priority 2022, dated 2025)", "key": {"rats": {"tested_on": "rats", "conditions": "2,000 mg/kg body weight in rats; cited from earlier work"}, "[1]": {"tested_on": "P. aeruginosa PAO1 biofilm", "test": "Confocal laser scanning microscopy (CLSM) of biofilm accumulation", "assay_type": "cell-based, Pseudomonas aeruginosa", "conditions": "3.30 mM cadaverine, 24 hrs, SYTO 9, n=5", "method": "PAO1 overnight cultures were diluted to OD600=0.17 in LB with 0 or 3.30 mM cadaverine in 35×10 mm confocal dishes and incubated statically at 37° C. in 5% CO2 for 24 hrs. Liquid media was aspirated and adhered biofilm was stained with SYTO 9 for 10 min and washed with PBS. CLSM stitched images were collected (n=5) with a laser power of 4.5% under 10× magnification using an Olympus FluoView FV10i CLSM. Mean gray scale value and surface area coverage were quantified using Fiji."}, "P. aeruginosa": {"tested_on": "P. aeruginosa", "conditions": "previous studies; cited from earlier work"}, "PAO1 Td-tomato or Xen41": {"tested_on": "PAO1 Td-tomato or Xen41", "test": "Culture imaging by photo, dissecting microscope and IVIS (biofilm morphology)", "assay_type": "cell-based, Pseudomonas aeruginosa", "conditions": "3.30 mM cadaverine", "method": "PAO1 Td-tomato or Xen41 cultures were grown similarly to CLSM cultures described above. iPhone 8 images were taken in a controlled well-lit environment. The air-liquid interface was imaged using an Amscope dissecting microscope with an MU500 camera. Xen41 light emission was detected with an IVIS Lumina II system (Caliper LifeSciences) as an indicator of biofilm activity."}, "P. aeruginosa PAO1": {"tested_on": "P. aeruginosa PAO1", "test": "Microtiter plate assay: planktonic growth (OD600) and crystal violet staining of biofilm (OD590)", "assay_type": "cell-based, Pseudomonas aeruginosa", "method": "Cadaverine (Sigma Aldrich) 5- or 10-mM stocks were prepared in LB and sterile filtered with a […] filter. […] […] Outer edge wells were filled with PBS to avoid “edge effects” due to evaporation. OD600 was measured to quantify planktonic growth. Liquid media was gently aspirated, and wells were washed three times with 150 μL PBS. Adhered biofilm was stained with 125 μL of 0.1% crystal violet (CV) in 20% ethanol in ddH2O (v/v) for 30 min. CV was gently aspirated, wells were washed five times with 150 μL PBS, and CV was solubilized with 150 μL 33% glacial acetic acid in ddH2O (v/v) by shaking gently at 100 rpm at room temperature for 25 min. CV was quantified at OD590 to report biofilm accumulation. LB blanks were averaged and subtracted from readings. Control PAO1 wells were averaged, and all measurements were normalized to control measurements per plate and reported as percent change from control."}, "HT29 intestinal cells": {"tested_on": "HT29 intestinal cells", "conditions": "up to 70 mM in HT29 intestinal cells; cited from earlier work"}, "[2]": {"conditions": "PAO1 Td-tomato, cadaverine 24 hrs"}, "[3]": {"conditions": "pre-formed biofilm: grown 24 hrs, then cadaverine for additional 24 hrs"}}, "note": "Where “and” joins values, the source holds several entries; their conditions need not be identical. Equal entries are not always repeated. Entries after “also recorded” stand apart in the source; their conditions may differ.", "data": [{"smiles": "NCCCCCN", "note": "[Cadaverine]", "values": [{"measurement": "acute oral toxicity", "setting": "rats", "value": "low acute oral toxicity"}, {"measurement": "reduction in biofilm accumulation by mean grayscale value", "setting": "[1]", "value": "54.5±26.0% and 55%"}, {"measurement": "reduction in biofilm accumulation by surface area coverage", "setting": "[1]", "value": "79.8±55.1% and 80%"}, {"measurement": "effect on effectiveness of β-lactams", "setting": "P. aeruginosa", "value": "enhances the effectiveness of many β-lactams"}, {"measurement": "biofilm morphology", "setting": "PAO1 Td-tomato or Xen41; 24 hrs, standing liquid culture, PAO1 Td-tomato", "value": "more aggregate-like, in a pellicle"}, {"measurement": "metabolic state of pellicle biofilm (IVIS luminescence)", "setting": "PAO1 Td-tomato or Xen41; PAO1 Xen41, air-liquid interface", "value": "metabolically active"}, {"measurement": "bactericidal or bacteriostatic effect", "setting": "P. aeruginosa PAO1; OD600, 0-3.30 mM cadaverine", "value": "not bactericidal; also recorded: did not have a bactericidal or bacteriostatic effect"}, {"measurement": "biofilm accumulation decrease (crystal violet OD590), percent change from control", "setting": "P. aeruginosa PAO1; [2]", "value": 37, "unit": "%"}, {"measurement": "planktonic growth increase (OD600), percent change from control", "setting": "P. aeruginosa PAO1; [2]", "value": 4, "unit": "%"}, {"measurement": "planktonic growth increase (OD600), percent change from control", "setting": "P. aeruginosa PAO1; WT PAO1, 0-3.30 mM cadaverine from initiation, 24 hrs, maximal (3.30 mM)", "value": "20.5±4.2% and 21%"}, {"measurement": "biofilm accumulation (crystal violet OD590) at low concentration", "setting": "P. aeruginosa PAO1; WT PAO1, 25 μM cadaverine, 24 hrs", "value": "increased marginally"}, {"measurement": "biofilm accumulation decrease (crystal violet OD590), percent change from control", "setting": "P. aeruginosa PAO1; [3]", "value": "39.8±2.5% and 40%"}, {"measurement": "planktonic growth increase (OD600), percent change from control", "setting": "P. aeruginosa PAO1; [3]", "value": "5.8±1.8% and 6%"}, {"measurement": "cytotoxicity", "setting": "HT29 intestinal cells", "value": "negligible cytotoxicity"}]}]}
